# Source: PubChem BioAssay AID1963829 (Molecular Pharmacology Branch, DTP, NCI, 2024)
# Several values for one entry are separate records, joined by “and”; a condition that tells them apart may be missing. Equal entries are not always repeated.
# Test system: 935938-334-R-J1-PDC complex spheroid viability
# Experiment: Anticancer human tumor 935938-334-R-J1-PDC patient-derived small intestine adenocarcinoma cell line growth inhibition [POLQ]
# Details: for viability, T/C: stronger effect = lower value
# Procedure: Multicellular complex tumor spheroid response to Polymerase (POL) inhibitors (novobiocin, ART-558, RP6685) in combination with a variety of drugs and investigational agents in selected tumor cell lines
# The POL inhibitors (novobiocin, ART-558, and RP6685) were evaluated both individually and in combination with standard of care and investigational anticancer small molecules within a complex spheroid model of solid tumors. . Complex spheroids include a stromal component modeled by human endothelial cells (HUVEC) and fibroblasts modeled by human mesenchymal stem cells (MSCs). The concentration ranges selected for each drug and investigational agent were based upon clinically achievable concentrations if the clinical Cmax of the agent was known.
# Compounds. The drugs and investigational agents: novobiocin (NSC847541), ART-558 (NSC835418), RP-6685 (NSC848927), peposertib (NSC802822), ceralasertib (NSC780249), elimusertib (NSC800525), camonsertib (NSC841442), AZD-1390 (NSC803789), olaparib (NSC753686), talazoparib (NSC767125), rucaparib (NSC756644), sotorasib (NSC818433), MRTX-1133 (NSC836407), SN-38 (NSC673596), topotecan (NSC609699), epotoside (NSC141540), doxorubicin (NSC123127), gemcitabine (NSC613327), 5-fluorouracil (NSC19893), paclitaxel (NSC125973), vemurafenib (NSC761431), MSA-2 (NSC828583), SN-011 (NSC837082), adavosertib (NSC754352), prexasertib (NSC758257), carboplatin (NSC241240) and oxaliplatin (NSC266046), were obtained from the National Cancer Institute (NCI) Developmental Therapeutics Program Chemical Repository (21). The FDA-approved anticancer drug set is available from the Developmental Therapeutics Program at https://dtp.cancer.gov/organization/dscb/obtaining/. […] The stock solutions were prepared in dimethyl sulfoxide (DMSO, Sigma-Aldrich, St. Louis, MO, cat. D2650), except for the platinum compounds which were prepared in saline (Quality Biological, Gaithersburg, MD, cat. 114-055-101), at 800-fold the tested concentration and stored at -70 degrees C prior to their use. All drugs and investigational agents were tested over a range starting from a high concentration at or near the clinical Cmax and decreasing in half-log increments. If the clinical Cmax for an agent had not been determined, the highest concentration tested was 10 microM, except for SN-38, which was tested at a high concentration of 1 microM.
# Cell Culture. All cells were maintained in an incubator at 37 degrees C and 5% CO2 with 95% humidity. The PDC lines were cultured according to standard operating procedures established by the NCI PDMR (https://pdmr.cancer.gov). Table 3 of the manuscript, lists the cell lines along with the number of the three cell types plated to form the mct-spheroids and media for tumor cell growth. After thawing, all PDC lines, except 997537-175-T-J1-PDC and 415267-285-R-J2-PDC, were cultured in Matrigel-coated flasks prepared with a working solution of 1X Ham's F-12 nutrient mix, without supplementation (Thermo Fisher Scientific, cat. 11765054), 100 U/mL penicillin-streptomycin (Thermo Fisher Scientific, cat. 15140122), and 2.5% Matrigel (Corning Inc., Corning, NY, cat. 354248) for the first three passages. The two PDC lines 997537-175-T-J1-PDC and 415267-285-R-J2-PDC were cultured on uncoated flasks. The 857933-349-R-J2-PDC line was cultured in 6C/Colon 1B media containing advanced DMEM/F-12 (Thermo Fisher Scientific, cat. 12634028), 10 mM HEPES (Thermo Fisher Scientific, cat. 15630080), 1X GlutaMAX supplement (Thermo Fisher Scientific, cat. 35050061), 0.1 mg/mL primocin (InvivoGen, San Diego, CA, cat. ant-pm-2), 10% defined fetal bovine serum, heat inactivated (HyClone Laboratories Inc., Logan, UT, cat. SH30070.03HI), 50% L-WRN conditioned media (ATCC, cat. CRL-3276), 1.25 mM N-Acetyl-L-cysteine (Sigma-Aldrich, cat. A9165), 10 mM nicotinamide (Sigma-Aldrich, cat. N0636), 1X B-27 supplement (Thermo Fisher Scientific, cat. 17504044), 1X N-2 supplement (Thermo Fisher Scientific, cat. […]
# [1] = curve of first compound, second compound 0.0316 µM
# [2] = curve of first compound, second compound 0.1 µM
# [3] = curve of first compound, second compound 0.316 µM
# [4] = curve of first compound, second compound 1 µM
# [5] = curve of first compound, second compound 3.16 µM
# [6] = curve of first compound, second compound 10 µM
# [7] = second compound 0.0316 µM, first compound 0.0316 µM
# [8] = second compound 0.0316 µM, first compound 0.1 µM
# [9] = second compound 0.0316 µM, first compound 0.316 µM
# [10] = second compound 0.0316 µM, first compound 1 µM
# [11] = second compound 0.0316 µM, first compound 3.16 µM
# [12] = second compound 0.0316 µM, first compound 10 µM
# [13] = second compound 0.1 µM, first compound 0.0316 µM
# [14] = second compound 0.1 µM, first compound 0.1 µM
# [15] = second compound 0.1 µM, first compound 0.316 µM
# [16] = second compound 0.1 µM, first compound 1 µM
# [17] = second compound 0.1 µM, first compound 3.16 µM
# [18] = second compound 0.1 µM, first compound 10 µM
# [19] = second compound 0.316 µM, first compound 0.0316 µM
# [20] = second compound 0.316 µM, first compound 0.1 µM
# [21] = second compound 0.316 µM, first compound 0.316 µM
# [22] = second compound 0.316 µM, first compound 1 µM
# [23] = second compound 0.316 µM, first compound 3.16 µM
# [24] = second compound 0.316 µM, first compound 10 µM
# [25] = second compound 1 µM, first compound 0.0316 µM
# [26] = second compound 1 µM, first compound 0.1 µM
# [27] = second compound 1 µM, first compound 0.316 µM
# [28] = second compound 1 µM, first compound 1 µM
# [29] = second compound 1 µM, first compound 3.16 µM
# [30] = second compound 1 µM, first compound 10 µM
# [31] = second compound 3.16 µM, first compound 0.0316 µM
# [32] = second compound 3.16 µM, first compound 0.1 µM
# [33] = second compound 3.16 µM, first compound 0.316 µM
# [34] = second compound 3.16 µM, first compound 1 µM
# [35] = second compound 3.16 µM, first compound 3.16 µM
# [36] = second compound 3.16 µM, first compound 10 µM
# [37] = second compound 10 µM, first compound 0.0316 µM
# [38] = second compound 10 µM, first compound 0.1 µM
# [39] = second compound 10 µM, first compound 0.316 µM
# [40] = second compound 10 µM, first compound 1 µM
# [41] = second compound 10 µM, first compound 3.16 µM
# [42] = second compound 10 µM, first compound 10 µM
# 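Further: spheroids exposed to drugs for seven days before viability read.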
# 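Wherever viability, T/C is given: 100% = DMSO vehicle control wells.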
smiles,measurement,setting,value
O=C(Nc1ccc(O)c(NS(=O)(=O)c2ccc(F)cc2)c1)c1ccc(-c2ccccc2)cc1 + Cc1cccc(N(C)C(=O)C2C(O)CCN2c2nc(C)cc(C(F)(F)F)c2C#N)c1,IC50,[1],> 10 µM
same,IC50,[2],> 10 µM
same,IC50,[3],> 10 µM
same,IC50,[4],> 10 µM
same,IC50,[5],> 10 µM
same,IC50,[6],8.04 µM
same,"viability, T/C",[7],116%
same,"viability, T/C",[8],91%
same,"viability, T/C",[9],99.3%
same,"viability, T/C",[10],95%
same,"viability, T/C",[11],89.3%
same,"viability, T/C",[12],64.8%
same,"viability, T/C",[13],83%
same,"viability, T/C",[14],73.9%
same,"viability, T/C",[15],76.1%
same,"viability, T/C",[16],109%
same,"viability, T/C",[17],98.1%
same,"viability, T/C",[18],65.9%
same,"viability, T/C",[19],85.9%
same,"viability, T/C",[20],93.9%
same,"viability, T/C",[21],71.4%
same,"viability, T/C",[22],99.2%
same,"viability, T/C",[23],123%
same,"viability, T/C",[24],65.1%
same,"viability, T/C",[25],91.3%
same,"viability, T/C",[26],80.3%
same,"viability, T/C",[27],100%
same,"viability, T/C",[28],92.2%
same,"viability, T/C",[29],72.8%
same,"viability, T/C",[30],56.2%
same,"viability, T/C",[31],93.2%
same,"viability, T/C",[32],114%
same,"viability, T/C",[33],95.3%
same,"viability, T/C",[34],88.6%
same,"viability, T/C",[35],98.6%
same,"viability, T/C",[36],61%
same,"viability, T/C",[37],92.4%
same,"viability, T/C",[38],106%
same,"viability, T/C",[39],101%
same,"viability, T/C",[40],100%
same,"viability, T/C",[41],71.1%
same,"viability, T/C",[42],45.1%
CC1COCCN1c1cc(C2(S(C)(=N)=O)CC2)nc(-c2ccnc3[nH]ccc23)n1 (stereo not drawn),"viability, T/C",compound 0.0316 µM,98.1% and 87.1% and 102%
same,"viability, T/C",compound 0.1 µM,112% and 108% and 84.7%
same,"viability, T/C",compound 0.316 µM,80.3% and 107% and 90.2%
same,"viability, T/C",compound 1 µM,85.9% and 79.2% and 65.2%
same,"viability, T/C",compound 3.16 µM,46.4% and 41.8% and 49.7%
same,"viability, T/C",compound 10 µM,24.2% and 18.7% and 17.1%
same,IC50,curve of compound,3.13 µM and 2.42 µM and 2.82 µM
C=CC(=O)N1CCN(c2nc(=O)n(-c3c(C)ccnc3C(C)C)c3nc(-c4c(O)cccc4F)c(F)cc23)C(C)C1 (stereo not drawn) + Cc1cccc(N(C)C(=O)C2C(O)CCN2c2nc(C)cc(C(F)(F)F)c2C#N)c1,IC50,[1],> 10 µM
same,IC50,[2],> 10 µM
same,IC50,[3],> 10 µM
same,IC50,[4],> 10 µM
same,IC50,[5],> 10 µM
same,IC50,[6],> 10 µM
same,"viability, T/C",[7],94.3%
same,"viability, T/C",[8],98.4%
same,"viability, T/C",[9],77%
same,"viability, T/C",[10],101%
same,"viability, T/C",[11],88.1%
same,"viability, T/C",[12],109%
same,"viability, T/C",[13],116%
same,"viability, T/C",[14],97.8%
same,"viability, T/C",[15],91.3%
same,"viability, T/C",[16],113%
same,"viability, T/C",[17],90.4%
same,"viability, T/C",[18],70.1%
same,"viability, T/C",[19],76.7%
same,"viability, T/C",[20],80.9%
same,"viability, T/C",[21],105%
same,"viability, T/C",[22],100%
same,"viability, T/C",[23],81.2%
same,"viability, T/C",[24],106%
same,"viability, T/C",[25],85.8%
same,"viability, T/C",[26],111%
same,"viability, T/C",[27],82.7%
same,"viability, T/C",[28],108%
same,"viability, T/C",[29],92.2%
same,"viability, T/C",[30],99.7%
same,"viability, T/C",[31],96%
same,"viability, T/C",[32],95%
same,"viability, T/C",[33],74.6%
same,"viability, T/C",[34],96.3%
same,"viability, T/C",[35],102%
same,"viability, T/C",[36],79.1%
same,"viability, T/C",[37],77.8%
same,"viability, T/C",[38],80.6%
same,"viability, T/C",[39],64.8%
same,"viability, T/C",[40],94.9%
same,"viability, T/C",[41],118%
same,"viability, T/C",[42],107%
COc1cc(C2c3cc4c(cc3C(OC3OC5COC(C)OC5C(O)C3O)C3COC(=O)C23)OCO4)cc(OC)c1O (stereo not drawn),"viability, T/C",compound 0.0316 µM,108% and 93.2% and 99.1%
same,"viability, T/C",compound 0.1 µM,103% and 85.7% and 106%
same,"viability, T/C",compound 0.316 µM,61.8% and 90.5% and 72.3%
same,"viability, T/C",compound 1 µM,49.7% and 44.2% and 35.8%
same,"viability, T/C",compound 3.16 µM,28.1% and 26.1% and 27.6%
same,"viability, T/C",compound 10 µM,31.2% and 30.3% and 30.4%
same,IC50,curve of compound,0.707 µM and 0.864 µM and 0.621 µM
